Source: patent US20250180508A1, “QUANTITATIVE LIPIDOMIC ANALYSIS, METHODS AND USES THEREOF” (McMaster University, priority 2023, published 2025)
Several values for one entry are separate records, joined by “and”; a condition that tells them apart may be missing. Equal entries are not always repeated. Where two headings read alike, the source gives them in different places.

Tests used:
[1] = Omega-3 index (O3I) from erythrocyte PL FAMEs by GC-FID, EPA or DHA trial; type: in vivo, human; details: for O3I (Post): 90-day period; for Average O3I status after supplementation: high-dose intake, after 90 days, both sexes
Description: (§1) This study was approved by the Research Ethics Board at the University of Guelph. Participant characteristics (sex, age, BMI etc.) and blood draws for O3I assessment were obtained for all participants (n=83) on study day visits. Purified EPA (KD-PUR EPA700TG) and DHA (KD-PUR DHA700TG) oils, as well as OO, were obtained from KD Pharma (Bexbach, Germany) with EPA and DHA in their triglyceride forms. The FA content of these supplements was previously reported to be 75.7%±0.01% for oleic acid (18:1) in the OO supplement, 74.7%±0.09% EPA and 0.55%±0.01% DHA in the EPA supplement, and 72.3%±1.3% DHA and 1.05+0.11% EPA in the DHA supplement (91). All capsules contained 0.20% vol. tocopherol to prevent oxidation of polyunsaturated lipids. Exclusion criteria included use of FO supplements within the previous 3 months, >2 servings of fish/seafood or other omega-3 FA-rich products per week, prescribed medication use (except oral contraceptives), current smoking and history of cardiovascular disease. Participants were assigned via block randomization with stratification by sex to one of three treatment arms, namely OO supplement (n=27), EPA supplement (n=28) and DHA supplement (n=28). Participants were instructed to maintain regular exercise and dietary habits throughout the study. After overnight fasts, participants were subject to blood sampling at the Human Nutraceutical Research Unit at the University of Guelph before (baseline) and after (endpoint) of the 90-day intervention period. Blood was collected into EDTA-treated vacutainers was used to isolate plasma and erythrocytes. Samples were separated by centrifugation at 700×g at 4° C. for 15 min. A similar protocol was performed for FAME analysis from erythrocyte PL extracts following fractionation and saponification using GC-FID with normalization to heptadecanoic acid as internal standard (92). In this case, the O3I was calculated by taking the sum of EPA and DHA relative to the sum of 15 saturated, monosaturated and polyunsaturated FAs in fasting plasma samples.

[2] = Targeted plasma PC analysis by MSI-NACE-MS in placebo-controlled EPA or DHA (~3 g/day) trial over 90 days; type: in vivo, human; details: change in plasma PC 36:5 + PC 38:6 from baseline, mean ± standard deviation
Description: as §1, with “The FA content of these supplements was previously reported to be 75.7%±0.01% for oleic acid (18:1) in the OO supplement, 74.7%±0.09% EPA and 0.55%±0.01% DHA in the EPA supplement, and 72.3%±1.3% DHA and 1.05+0.11% EPA in the DHA supplement (91).” left out, “A similar protocol was performed for FAME analysis from erythrocyte PL extracts following fractionation and saponification using GC-FID with normalization to heptadecanoic acid as internal standard (92).” left out
(positive ion mode) or FA 14:0[D27]

[3] = in vivo
Description: (§2) In the first discovery cohort, fasting serum samples were collected from participants in a randomized, double-blinded, placebo-controlled intervention study that investigated the effects of FO supplementation on attenuating skeletal muscle disuse atrophy following leg immobilization (84). […] Briefly, this study comprised a cohort of healthy young women with a mean age of 22 years (range: 19-31 years) and BMI of 24 kg/m^2 (range: 18-26 kg/m^2) recruited locally from the Hamilton area. All participants received either a high-dose FO (3.0 g EPA and 2.0 g DHA daily; n=9) or a placebo control based on an isoenergetic and volume equivalent sunflower oil (SO) daily (n=9). Repeat fasting serum samples were collected from participants at baseline and after 28, 42 and 56 days of the intervention. All serum samples were then stored frozen at −80° C.
(§3) Fasting serum and plasma samples were subject to a two-step chemical derivatization protocol using 9-fluorenylmethyoxycarbonyl chloride (FMOC) and 3-methyl-1-p-tolyltriazene (FMOC/MTT) as described in example 1. This reaction was introduced as a more convenient alternative to diazomethane to improve separation resolution and ionization efficiency by converting zwitter-ionic PL species that co-migrate close to the electroosmotic flow (EOF) into methylated phosphatidylcholines (PCs) and sphingomyelins (SMs) with a permanent positive charge. Briefly, in a glass sample vial, a 50 μL aliquot of serum/plasma sample was subject to a methyl-tert-butyl ether (MTBE) extraction, where 100 μL of methanol with 0.01% vol of BHT as antioxidant, and PC 16:0[D62] as internal standard were first added, and samples then mixed to induce protein precipitation. Next, 250 μL of MTBE was added and mixed prior to adding 100 μL of deionized water to induce phase separation. Samples were then centrifuged at 4000 g at 4° C. where then 200 μL of the organic layer was transferred into a new glass vial and dried down. Next, 100 μL of 0.85 mmol/L FMOC in chloroform containing PC 18:0[D70] as a second internal standard was added to dried serum/plasma extracts and mixed for 5 min at room temperature before drying down again. Next, 50 μL of MTBE containing 450 mmol/L of MTT was added to the glass vial with the lid sealed with Teflon tape. This vessel was then heated to 60° C. for 60 min.

[4] = Pooled sub-group untargeted serum lipid profiling by MSI-NACE-MS, high-dose FO supplementation vs placebo/baseline; details: pooled serum extracts; for Fold-change (average fold-change in ion response for serum lipid following FO supplementation to baseline): high-dose FO (EPA 3 g/day + DHA 2 g/day) vs baseline, underivatized, negative ion mode; for Change in serum lipid response following FO supplementation (in words): high-dose FO vs baseline/placebo, MSI-NACE-MS positive or negative ion mode
Description: as §2, §3

[5] = change from baseline, 3.0 g/day, in %
[6] = change in erythrocyte PL membrane derived O3I from baseline, females (F), mean ± standard deviation
[7] = change in erythrocyte PL membrane derived O3I from baseline, males (M), mean ± standard deviation
[8] = difference in O3I status from baseline, similar dose of EPA or DHA

CC/C=C\C/C=C\C/C=C\C/C=C\C/C=C\C/C=C\CCC(=O)O [DHA, docosahexaenoic acid]
Greater increase in O3I from baseline (relative efficacy) as compared to EPA ([1]; DHA vs EPA at the same dose level): 63% and 64% | O3I (Post) ([1]; Female, 3.0 g/day): 8.04 ± 1.34 | O3I (Post) ([1]; Male, 3.0 g/day): 8.73 ± 0.97 | ΔO3I [1, 5]: 4.90 ± 1.33 | ΔO3I [1, 6]: 4.31 ± 1.26 | ΔO3I [1, 7]: 5.57 ± 1.10 | ΔO3I [1, 8]: 4.90±1.33% | Average O3I status after supplementation [1]: 6.49±1.17% | Δ(PC 36:5 + PC 38:6) ([2]; females (F)): 26.11 ± 16.15 | Δ(PC 36:5 + PC 38:6) ([2]; males (M)): 25.80 ± 20.88 | Change in serum lipid response following FO supplementation (in words) [3]: more modest increase

CC/C=C\C/C=C\C/C=C\C/C=C\C/C=C\CCCC(=O)O [EPA, eicosapentaenoic acid]
Fold-change (average fold-change in ion response for serum lipid following FO supplementation to baseline) [4]: 4.16 | Change in serum lipid response following FO supplementation (in words) [4]: more modest increase | O3I (Post) ([1]; Female, 3.0 g/day): 6.75 ± 1.20 | O3I (Post) ([1]; Male, 3.0 g/day): 6.23 ± 1.10 | ΔO3I [1, 5]: 2.99 ± 1.19 | ΔO3I [1, 6]: 3.14 ± 1.25 | ΔO3I [1, 7]: 2.83 ± 1.14 | ΔO3I [1, 8]: 2.99 ± 1.19% | Average O3I status after supplementation [1]: 8.30±1.21% | Δ(PC 36:5 + PC 38:6) ([2]; females (F)): 33.71 ± 16.15 | Δ(PC 36:5 + PC 38:6) ([2]; males (M)): 19.30 ± 14.26

CCCCCCCCCCCC(=O)O [FA 12:0]
Fold-change (average fold-change in ion response for serum lipid following FO supplementation to baseline) [4]: 0.86

CCCCCCCCCCCCCC(=O)O [FA 14:0]
Fold-change (average fold-change in ion response for serum lipid following FO supplementation to baseline) [4]: 0.60

CCCCCCCCCCCCCCC(=O)O [FA 15:0]
Fold-change (average fold-change in ion response for serum lipid following FO supplementation to baseline) [4]: 0.85

CCCCCCCCCCCCCCCCC(=O)O [FA 17:0]
Fold-change (average fold-change in ion response for serum lipid following FO supplementation to baseline) [4]: 0.85

CCCCCCCCCCCCCCCCCC(=O)O [FA 18:0, stearic acid]
Fold-change (average fold-change in ion response for serum lipid following FO supplementation to baseline) [4]: 0.82

CCCCCCCC/C=C\CCCCCCCC(=O)O [FA 18:1, oleic acid]
Fold-change (average fold-change in ion response for serum lipid following FO supplementation to baseline) [4]: 0.83

PE 38:5
Fold-change (average fold-change in ion response for serum lipid following FO supplementation to baseline) [4]: 0.49 | Change in serum lipid response following FO supplementation (in words) [4]: did not exhibit increases

docasapentaenoic acid [FA 22:5]
Fold-change (average fold-change in ion response for serum lipid following FO supplementation to baseline) [4]: 0.57 | Change in serum lipid response following FO supplementation (in words) [4]: did not respond to supplementation
